Columns and labels:
Type in all cases: cell-based
[1] = tested on: Helicobacter pylori ATCC 43504; assay: Minimum inhibitory concentration (MIC) determination, broth microdilution; settings: H. pylori ATCC 43504; 72 h, BHI broth with 7% FBS, no turbidity
Description: (§1) Helicobacter pylori ATCC 43504 and ATCC 700392 were purchased from the American Type Culture Collection (ATCC, Manassas, Va., USA). Cultures were grown in brain heart infusion (BHI) agar/broth (HiMedia, Mumbai India) supplemented with 7% (v/v) sheep blood or fetal bovine serum and incubated at 37° C. under microaerobic conditions (Na, 85%; 02, 5%; CO2, 10%) using an anaerobic chamber (Imset, Mumbai, India). Bacillus coagulans MTCC 5856 was grown in MRS media by adding inoculum (5% v/v) to the MRS broth and incubated at 37° C. for 24 h. After 24 h, the culture was centrifuged (5,000×g) to remove the cells and the supernatant was collected, concentrated 10-fold by lyophilization and filter sterilized through a 0.22 micron filter (Millipore, India). The cell-free supernatant was tested against H. pylori and 10-fold concentrated supernatant was also tested against H. pylori ATCC 43504 and ATCC 700392. The MICs of curcumin, β-glucogallin and mucic acid gallates extract and Piperine extract were determined as per the guidelines of Clinical and Laboratory Standards Institute (formerly the National Committee for Clinical Laboratory Standards). […] After incubation, plates were visually read for the absence or presence of turbidity. The minimum concentration of the compound concentration showing no turbidity was recorded as MIC.

[2] = tested on: Helicobacter pylori ATCC 700392; assay: as above; settings: H. pylori ATCC 700392; 72 h, BHI broth with 7% FBS, no turbidity
Description: as §1

[3] = tested on: Helicobacter pylori ATCC 43504; assay: Well diffusion method, zones of inhibition; settings: ATCC43504, 72 h, H. pylori ATCC 43504, 1000 μg/well, 3 days, 37° C., microaerobic
Description: (§2) Helicobacter pylori ATCC 43504 and ATCC 700392 were purchased from the American Type Culture Collection (ATCC, Manassas, Va., USA). Cultures were grown in brain heart infusion (BHI) agar/broth (HiMedia, Mumbai India) supplemented with 7% (v/v) sheep blood or fetal bovine serum and incubated at 37° C. under microaerobic conditions (Na, 85%; 02, 5%; CO2, 10%) using an anaerobic chamber (Imset, Mumbai, India). Bacillus coagulans MTCC 5856 was grown in MRS media by adding inoculum (5% v/v) to the MRS broth and incubated at 37° C. for 24 h. After 24 h, the culture was centrifuged (5,000×g) to remove the cells and the supernatant was collected, concentrated 10-fold by lyophilization and filter sterilized through a 0.22 micron filter (Millipore, India). The cell-free supernatant was tested against H. pylori and 10-fold concentrated supernatant was also tested against H. pylori ATCC 43504 and ATCC 700392. Similar to above, BHI agar plates supplemented with 7% (v/v) fetal bovine serum were prepared containing a strain of Helicobacter pylori ATCC 43504 or ATCC 700392. Further, well was made in the BHI agar plates containing Helicobacter pylori ATCC 43504 or ATCC 700392. […] After incubation, the antibacterial activities were evaluated by measuring a diameter of the inhibition zone. […]

[4] = tested on: Helicobacter pylori ATCC 700392; assay: Well diffusion method, zones of inhibition; settings: ATCC700392, 72 h, H. pylori ATCC 700392, 1000 μg/well, 3 days, 37° C., microaerobic
Description: as §2

- MIC range [1]: 125 to 250 µg/mL
- MIC range [2]: 125 to 250 µg/mL
Compound: COc1cc(/C=C/C(=O)CC(=O)/C=C/c2ccc(O)c(OC)c2)ccc1O [Curcumin]
- zone of inhibition at 1000 µg/disc [3]: 13 ± 1.2 mm
- zone of inhibition at 1000 µg/disc [4]: 14 ± 1.2 mm

— patent publication US10792295B2, “Compositions for management of Helicobacter pylori infections” (SAMI LABS LIMITED, priority 2017, dated 2020)
